Measured values: patent US9586959B2, “Substituted tricyclic heterocycles as histamine 4 receptor inhibitors” (C&C RESEARCH LABORATORIES, priority 2011, dated 2017)
Values after ≈ are worked out from the molar mass of the structure shown.

Assays:
[1] = target: human histamine 4 receptor (hH4R) (Homo sapiens (Human), UniProt Q9H3N8); assay: Binding affinity of human histamine 4 receptor (hH4R), [3H] labeled histamine displacement; settings: hH4R-overexpressed cell membrane, [3H] histamine
Description: 20 μL of the prepared compound solution was transferred to each well of a 96-well plate, and then 20 μL of 100 μM histamine diluted with analysis buffer solution and 1% DMSO were transferred to each well to calculate non-specific binding and total binding degree. 25 μg of human histamine 4 receptor-overexpressed cell membrane (PerkinElmer) was diluted into 160 μL of analysis buffer solution and that was transferred to each well. [^3H] labeled histamine (PerkinElmer) was diluted into 1 μM concentration, 20 μL was allocated in each well, and then it was kept in a 27° C. incubator for 30 minutes. After the reaction, 200 μL of the mixture was transferred to a glass fiber plate in which 0.5% polyethylene amine was presoaked, and then non-binding [^3H] labeled histamine was removed in vacuum. After 4 times washing with 200 μL of washing buffer solution (50 mM tris-HCl, pH 7.4), the plate was dried in a 37° C. oven for 18 hours. 100 μL of betascint cocktail solution was added to each well, and after 1 hour CPM (count per minute) value of [^3H] labeled histamine was measured by using Wallac beta-counter TriLux.

[2] = Solubility in artificial gastrointestinal tract solution; format: physicochemical; settings: thermodynamic from solid; for solubility at 1 h: fassgf or other biorelevant, first solution pH 1.2, 2 mg/mL sample, 37° C. 1 hour; for solubility at 2 h: fassif, second solution pH 6.5, 2 mg/mL sample, 37° C. 2 hours
Description: 2.0 g of sodium chloride was added in 7.0 mL of 37% of hydrochloric acid and water to make the total volume of 1 L. The pH was adjusted to exactly 1.2 with 1N sodium hydroxide or 1N hydrochloric acid. A small amount (20 mL) of this solution was taken and added in 25 μL of triton X-100 to make the total volume of 25 mL.
0.348 g sodium hydroxide, 3.438 g NaH2PO4, 6.186 g sodium chloride and water were added to make the total volume of 1 L. The pH was adjusted to exactly 6.5 with 1N sodium hydroxide or 1N hydrochloric acid. A small amount (20 mL) of this solution was taken and 41.25 mg of sodium taurocholate hydrate and 25 μL of 750 mM lecithin dissolved in ethanol was added to make the total volume of 25 mL.
The heated test sample solutions were filtered to remove undissolved compounds therein. Finally, 100 μL of the completely compound-dissolved solution was sampled and 100 μL of CH3CN was added thereto to make the test sample solution. For each analysis of the test sample solution, the solubility was measured by using liquid chromatography.

[3] = Metabolic stability in mouse microsome; settings: mouse microsome 1 mg/mL, 5 μM compound, 1 mM NADPH
[4] = Metabolic stability in human microsome; settings: human microsome 1 mg/mL, 5 μM compound, 1 mM NADPH
[5] = target: human histamine 3 receptor (hH3R) (Homo sapiens (Human), UniProt Q9Y5N1); assay: Binding affinity of human histamine 3 receptor (hH3R), [3H] labeled N-α-methylhistamine displacement; settings: hH3R-overexpressed cell membrane, [3H] N-α-methylhistamine
human histamine 3 receptor (hH3R), sequence (Q9Y5N1 whole entry): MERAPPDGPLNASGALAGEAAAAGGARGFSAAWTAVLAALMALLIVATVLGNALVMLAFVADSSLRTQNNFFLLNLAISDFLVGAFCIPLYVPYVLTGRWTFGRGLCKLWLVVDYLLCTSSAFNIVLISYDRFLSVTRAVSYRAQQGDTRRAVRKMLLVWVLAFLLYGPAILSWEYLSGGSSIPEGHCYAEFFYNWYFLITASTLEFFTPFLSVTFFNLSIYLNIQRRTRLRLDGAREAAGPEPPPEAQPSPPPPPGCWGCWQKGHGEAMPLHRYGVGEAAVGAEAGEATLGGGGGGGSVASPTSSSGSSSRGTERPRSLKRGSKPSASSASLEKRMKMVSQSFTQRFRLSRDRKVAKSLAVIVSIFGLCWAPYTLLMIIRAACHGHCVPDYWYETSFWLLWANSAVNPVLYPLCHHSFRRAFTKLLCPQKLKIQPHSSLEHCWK
Outline: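 Membranes from cells overexpressing hH3R (15 μg) were incubated with compound and [3H]N-α-methylhistamine (20 μM stock) in 50 mM Tris-HCl pH 7.4, 5 mM MgCl2 for 30 min at 27 °C. Bound radioligand was counted by scintillation after filtration; 200 μM (R)(−)-α-methylhistamine stock defined non-specific binding; IC50 derived.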

[6] = Mouse pharmacokinetics (oral); format: in vivo; settings: plasma, 50 mg/kg, ICR mouse, 5 mg/mL solution at 10 mL/kg; for AUC(0-inf): read-out: Mouse pharmacokinetics AUCinf; for half-life: read-out: Mouse pharmacokinetics t1/2 (converted)
Description: The weight of each ICR mouse and SD rat was properly 20˜30 g and 200˜300 g, and dosage of the compound of the present invention was 10 mL/kg for mice and 5 mL/kg for rats, and administered orally using Zonde. Blood collection was performed at 0.25, 0.5, 1, 2, 4, 6, 8 and 24 hours by orbital venous blood collection using a capillary tube coated with an anticoagulant, and then plasma was isolated using a centrifuge and kept in a freezer.
Plasma collected from animals and standard concentration material were pretreated using solid-phase extraction, and concentration of the compound of the invention was determined using a liquid chromatography mass spectrometer (Agilent HPLC, API-3000).
According to the resulting concentration value, the pharmacokinetics parameter was found using WinNonlin (Version 6.2) and half-life (t1/2), maximum blood concentration (Cmax) and infinite area under the curve (AUCinf) are shown in Tables 6 and 7 below.

[7] = target: human serotonin 3 receptor (human 5-HT3 receptor) (Homo sapiens (Human), UniProt P46098); assay: Binding affinity of human serotonin 3 receptor (performed at Cerep)
human serotonin 3 receptor (human 5-HT3 receptor), sequence (P46098 24-478): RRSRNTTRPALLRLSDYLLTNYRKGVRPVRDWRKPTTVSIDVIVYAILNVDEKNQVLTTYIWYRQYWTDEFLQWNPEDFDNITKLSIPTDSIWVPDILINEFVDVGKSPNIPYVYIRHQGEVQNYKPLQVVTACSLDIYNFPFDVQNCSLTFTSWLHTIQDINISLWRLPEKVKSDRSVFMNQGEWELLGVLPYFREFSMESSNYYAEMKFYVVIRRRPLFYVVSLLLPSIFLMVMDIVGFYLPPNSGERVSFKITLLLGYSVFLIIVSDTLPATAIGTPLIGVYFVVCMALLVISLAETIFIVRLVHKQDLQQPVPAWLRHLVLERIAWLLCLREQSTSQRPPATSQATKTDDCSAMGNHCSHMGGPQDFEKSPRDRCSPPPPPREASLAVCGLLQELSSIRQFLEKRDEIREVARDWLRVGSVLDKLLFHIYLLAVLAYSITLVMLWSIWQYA
Description: The binding assays of the human serotonin 3 receptor for present invention were performed at Cerep (Poitiers, France), and the results of analysis are shown in Table 3.

[8] = artificial gastrointestinal tract solution

human histamine 4 receptor (hH4R), sequence (Q9H3N8 whole entry): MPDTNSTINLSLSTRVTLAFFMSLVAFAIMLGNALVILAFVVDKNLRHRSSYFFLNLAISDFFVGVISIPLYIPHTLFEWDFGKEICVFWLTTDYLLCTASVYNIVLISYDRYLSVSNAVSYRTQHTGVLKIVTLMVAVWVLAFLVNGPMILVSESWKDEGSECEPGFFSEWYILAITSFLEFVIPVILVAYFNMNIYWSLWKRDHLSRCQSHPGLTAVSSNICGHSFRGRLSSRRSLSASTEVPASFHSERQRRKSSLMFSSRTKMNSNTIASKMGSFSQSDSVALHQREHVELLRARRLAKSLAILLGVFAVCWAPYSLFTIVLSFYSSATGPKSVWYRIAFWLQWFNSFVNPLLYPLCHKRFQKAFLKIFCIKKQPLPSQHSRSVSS

Structure (SMILES) | IC50 [1] [nM] | solubility at 1 h [2, 8] [µg/mL] | solubility at 2 h [2, 8] [µg/mL] | Metabolic stability (CLh. int), Mouse [3] [µL/min/mg] | Metabolic stability (CLh. int), Human [4] [µL/min/mg] | IC50 [5] [nM] | Cmax [6] [ng/mL] | AUC(0-inf) [6] [ng·h/mL] | half-life [6] [h] | solubility at 1 h [2] [µg/mL] | solubility at 2 h [2] [µg/mL] | IC50 ([1]; hydrochloride) [nM] | inhibition at 10 µM ([7]; read-out: % inhibition degree at 10 μM, human serotonin 3 receptor (h5-HT3R)) [%] | IC50 ([7]; read-out: Binding affinity (IC50) of human serotonin 3 receptor (h5-HT3R)) [nM]
CN1CCN(c2nc3ncc(Br)cc3n3cnnc23)CC1 [Compound 12, 8-Bromo-4-(4-methylpiperazin-1-yl)pyrido[2,3-e][1,2,4]triazolo[4,3-a]pyrazine] | 67 | 1930 (≈ 5.54 mM) | 679 (≈ 1.95 mM) | 14420 | 3730 |  |  |  |  |  |  |  |  | 
Brc1cnc2nc(N3CCNCC3)c3nncn3c2c1 [Compound 16, 8-Bromo-4-(piperazin-1-yl)pyrido[2,3-e][1,2,4]triazolo[4,3-a]pyrazine] | 65 | 1930 (≈ 5.78 mM) | 758 (≈ 2.27 mM) | 10420 | 4080 | > 100000 | 8270 | 15900 | 1.18 |  |  |  |  | 
C[C@H]1CN(c2nc3ncc(Cl)cc3n3cnnc23)CCN1 [Compound 19, (S)-8-chloro-4-(3-methylpiperazin-1-yl)pyrido[2,3-e][1,2,4]triazolo[4,3-a]pyrazine] | 760 | 1980 (≈ 6.5 mM) | 1700 (≈ 5.58 mM) | 26160 | 960 | > 100000 |  |  |  |  |  |  |  | 
C[C@H]1CN(c2nc3ncc(Cl)cc3n3cnnc23)CCN1C [Compound 20, (S)-8-chloro-4-(3,4-dimethylpiperazin-1-yl)pyrido[2,3-e][1,2,4]triazolo[4,3-a]pyrazine] | 380 | 2070 (≈ 6.51 mM) | 1640 (≈ 5.18 mM) | 7570 | 1620 | > 100000 |  |  |  |  |  |  |  | 
Cc1nc2c3cc(Cl)cnc3nc(N3CCNCC3)n2n1 [Compound 32, 9-Chloro-2-methyl-5-(piperazin-1-yl)pyrido[3,2-e][1,2,4]triazolo[1,5-c]pyrimidine] | 73 | 1350 (≈ 4.43 mM) | 1150 (≈ 3.79 mM) | 8390 | 1030 | > 100000 | 10100 | 74900 | 5.39 |  |  |  |  | 
CNC1CN(c2nc3ncc(C)cc3n3cnnc23)C1 [Compound 50, N-Methyl-1-(8-methylpyrido[2,3-e][1,2,4]triazolo[4,3-a]pyrazin-4-yl)azetidin-3-amine] | 190 | 1990 (≈ 7.38 mM) | 1870 (≈ 6.95 mM) | 9080 | 1900 | > 100000 |  |  |  |  |  |  |  | 
CNC1CN(c2nc3ncc(C(F)(F)F)cc3n3cnnc23)C1 [Compound 52, N-Methyl-1-(8-(trifluoromethyl)pyrido[2,3-e][1,2,4]triazolo[4,3-a]pyrazin-4-yl)azetidin-3-amine] | 220 |  |  | 2050 | 1320 | > 100000 |  |  |  | 1670 (≈ 5.18 mM) | 1460 (≈ 4.53 mM) |  |  | 
CNC1CN(c2nc3ncc(Br)cc3n3cnnc23)C1.Cl [Compound 68, 1-(8-Bromopyrido[2,3-e][1,2,4]triazolo[4,3-a]pyrazin-4-yl)-N-methylazetidin-3-amine hydrochloride] |  | 1820 | 1760 | 3930 | 300 | > 100000 |  |  |  |  |  | 130 |  | 
CNC1CN(c2nc3ncc(Br)cc3n3nnnc23)C1.Cl [Compound 69, 1-(8-Bromopyrido[2,3-e]tetrazolo[1,5-a]pyrazin-4-yl)-N-methylazetidin-3-amine hydrochloride] | 35 | 1810 | 1920 | 14040 | 5690 | > 100000 |  |  |  |  |  |  |  | 
CNC1CN(c2nc3ncc(Cl)cc3n3ccnc23)C1 [Compound 88, 1-(8-Chloroimidazo[1,2-a]pyrido[2,3-e]pyrazin-4-yl)-N-methylazetidin-3-amine] | 260 | 1820 (≈ 6.31 mM) | 1580 (≈ 5.46 mM) | 11770 | 2870 | > 100000 |  |  |  |  |  |  |  | 
CNC1CN(c2nc3ncc(Cl)cc3n3nnnc23)C1 [Compound 93, 1-(8-Chloropyrido[2,3-e]tetrazolo[1,5-a]pyrazin-4-yl)-N-methylazetidin-3-amine] | 65 | 1970 (≈ 6.78 mM) | 1310 (≈ 4.49 mM) | 9470 | 4480 | > 100000 | 10800 | 121000 | 15.6 |  |  |  | 18 | > 10000
CNC1CN(C2=Nc3ncc(Br)cc3N3CCN=C23)C1 [Compound 107, 1-(8-bromo-1,2-dihydroimidazo[1,2-a]pyrido[2,3-e]pyrazin-4-yl)-N-methylazetidin-3-amine] | 620 | 1420 (≈ 4.22 mM) | 1570 (≈ 4.68 mM) | 8150 | 5160 | > 100000 |  |  |  |  |  |  |  | 
CNC1CN(c2nc3ncc(Br)cc3c3ccnn23)C1 [Compound 110, 1-(9-bromopyrazolo[1,5-c]pyrido[3,2-e]pyrimidin-5-yl)-N-methylazetidin-3-amine] | 160 | 1870 (≈ 5.62 mM) | 708 (≈ 2.13 mM) | 1780 | 3880 | > 100000 |  |  |  |  |  |  |  | 
CNC1CN(c2nc3ncc([N+](=O)[O-])cc3n3cnnc23)C1 [Compound 111, N-methyl-1-(8-nitropyrido[2,3-e][1,2,4]triazolo[4,3-a]pyrazin-4-yl)azetidin-3-amine] | 240 | 1900 (≈ 6.33 mM) | 1070 (≈ 3.55 mM) | 5230 | 4200 | > 100000 |  |  |  |  |  |  |  | 
